Consider eight compounds from EP4635969A1, “NOVEL GLUCOCORTICOID, METHOD FOR PREPARING SAME, AND USE THEREOF” (Tianjin Pharmaceutical Biotechnology Co., Ltd., priority 2022, dated 2024).

The test deals with T1, glucocorticoid receptor (GR) (Homo sapiens, UniProt P04150).
T1 sequence (P04150 521-777): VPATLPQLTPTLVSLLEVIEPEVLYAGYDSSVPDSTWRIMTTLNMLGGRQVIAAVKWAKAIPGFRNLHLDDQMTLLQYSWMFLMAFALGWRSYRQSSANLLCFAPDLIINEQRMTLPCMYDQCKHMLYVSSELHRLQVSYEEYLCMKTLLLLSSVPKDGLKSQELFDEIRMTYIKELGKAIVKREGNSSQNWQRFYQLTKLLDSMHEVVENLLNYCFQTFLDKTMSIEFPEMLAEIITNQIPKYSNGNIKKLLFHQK
Kind of test: Assay for agonist activity on glucocorticoid receptor (luciferase reporter, HEK293 cells transfected with pBIND-GR plasmid). It is filed as cell-based. As to conditions: HEK293 cells transfected with pBIND-GR, luciferase signal; read-out: GR agonist EC50. The method, then:
Pharmacological Example 1: Assay for Agonist Activity on Glucocorticoid Receptor (GR)
The test compounds were subjected to a 4-fold serial dilution starting from an initial concentration of 10 µ M, generating a 10-point concentration gradient with duplicate wells for each concentration. The blank control consisted of 0.1 % DMSO.
The HEK293 stable cell line […] transfected with glucocorticoid receptor (GR) (ICE Bioscience, Lot No. TYP-20220519) was cultured in Dulbecco's Modified Eagle Medium (DMEM) supplemented with 10% fetal bovine serum (FBS) and 200 µ g/ml Hygromycin B in a cell incubator containing 5% CO2 at 37 °C. The spent medium was aspirated and the cells were washed once with phosphate-buffered saline (PBS). Then, 1 mL of TrypLE™ Express solution was added, and the cells were incubated at 37 °C for approximately 2 min. When the cells detached from the bottom of the cell culture dish, approximately 5 mL of pre-warmed complete medium at 37 °C was added. The cell suspension was gently pipetted with a pipette to dissociate clumped cells. The cell suspension was transferred to a sterile centrifuge tube and centrifuged at 1000 rpm for 5 min to pellet the cells for experiments or subculture.
HEK293 cells were digested and seeded into 6-cm culture dishes. The pBIND-GR plasmid was transfected into the HEK293 cells using a transfection reagent, resulting in HEK293 cells successfully transfected with the pBIND-GR plasmid. The cells were resuspended in phenol red-free DMEM medium containing 5% charcoal-stripped serum, counted, and then seeded into 96-well plates. The test compounds were added, and the plates were then incubated in an incubator. The luminescence signal values were measured using a multimode microplate reader following the instructions of the luciferase assay kit. The EC50 values of each test compound were calculated using the nonlinear fitting formula with GraphPad Prism 8.0 software.
For orientation: In a reporter assay the amount or activity of a reporter protein is the signal.
In the case of `C[C@]12C=CC(=O)C=C1[C@@H](F)C[C@H]1[C@@H]3C[C@H]4OC(c5ccc(CSC6CCOC6=O)cn5)O[C@@]4(C(=O)CO)[C@@]3(C)C[C@H](O)[C@@]12F` (stereo partly drawn) [Compound 49, (2S,6aS,6bR,7S,8aS,8bS,11aR,12aS,12bS)-2,6b-Difluoro-7-hydroxy-8b-(2-hydroxyacetyl)-6a,8a-dimethyl-10-(5-(((2-oxotetrahydrofuran-3-yl)thio)methyl)pyridin-2-yl)-1,2,6a,6b,7,8,8a,8b,11a,12, 12a,12b-dodecahydro-4H-naphtho[2',1':4,5]indeno[1,2-d][1,3]dioxol-4-one], the EC50 (in general, the concentration giving half of the maximal effect) was 1.12 nM.

For `C[C@]12C=CC(=O)C=C1CC[C@H]1[C@@H]3C[C@H]4OC(c5ccc(CSC6CCOC6=O)cn5)O[C@@]4(C(=O)CO)[C@@]3(C)C[C@H](O)[C@@]12F` (stereo partly drawn) [Compound 50, (6aS,6bR,7S,8aS,8bS,11aR,12aS,12bS)-6b-Fluoro-7-hydroxy-8b-(2-hydroxyacetyl)-6a,8a-dimethyl-10-(5-(((2-oxotetrahydrofuran-3-yl)thio)methyl)pyridin-2-yl)-1,2,6a,6b,7,8,8a,8b,11a,12,12a,12 b-dodecahydro-4H-naphtho[2',1':4,5]indeno[1,2-d][1,3]dioxol-4-one], the EC50 worked out at 0.98 nM.

For the compound `C[C@]12C=CC(=O)C=C1[C@@H](F)C[C@H]1[C@@H]3C[C@H]4OC(c5cnc(CSC6CCOC6=O)nc5)O[C@@]4(C(=O)CO)[C@@]3(C)C[C@H](O)[C@@]12F` (stereo partly drawn) [Compound 52, (2S,6aS,6bR,7S,8aS,8bS,11aR,12aS,12bS)-2,6b-Difluoro-7-hydroxy-8b-(2-hydroxyacetyl)-6a,8a-dimethyl-10-(2-(((2-oxotetrahydrofuran-3-yl)thio)methyl)pyrimidin-5-yl)-1,2,6a,6b,7,8,8a,8b,11a, 12,12a,12b-dodecahydro-4H-naphtho[2',1':4,5]indeno[1,2-d][1,3]dioxol-4-one], the EC50 came out at 6.92 nM.

With `C[C@]12C=CC(=O)C=C1CC[C@H]1[C@@H]3C[C@H]4OC(c5cnc(CSC6CCOC6=O)nc5)O[C@@]4(C(=O)CO)[C@@]3(C)C[C@H](O)[C@@]12Cl` (stereo partly drawn) [Compound 54, (6aS,6bR,7S,8aS,8bS,11aR,12aS,12bS)-6b-Chloro-7-hydroxy-8b-(2-hydroxyacetyl)-6a,8a-dimethyl-10-(2-(((2-oxotetrahydrofuran-3-yl)thio)methyl)pyrimidin-5-yl)-1,2,6a,6b,7,8,8a,8b,11a,12,12a, 12b-dodecahydro-4H-naphtho[2',1':4,5]indeno[1,2-d][1,3]dioxol-4-one], the concentration giving a half-maximal response (EC50) came out at 5.64 nM.

Consider `C[C@]12C=CC(=O)C=C1CC[C@H]1[C@@H]3C[C@H]4OC(c5ccc(C[S+]([O-])C6CCOC6=O)cc5)O[C@@]4(C(=O)CO)[C@@]3(C)C[C@H](O)[C@@]12F` (stereo partly drawn) [Compound 56, (6aS,6bR,7S,8aS,8bS,11aR,12aS,12bS)-6b-Fluoro-7-hydroxy-8b-(2-hydroxyacetyl)-6a,8a-dimethyl-10-(4-(((2-oxotetrahydrofuran-3-yl)sulfinyl)methyl)phenyl)-1,2,6a,6b,7,8,8a,8b,11a,12,12a,12b-dodecahydro-4H-naphtho[2',1':4,5]indeno[1,2-d][1,3]dioxol-4-one], for which the EC50 amounted to 1.56 nM.

In the case of `C[C@]12C=CC(=O)C=C1CC[C@H]1[C@@H]3C[C@H]4OC(c5ccc(C[S+]([O-])C6CCOC6=O)cc5)O[C@@]4(C(=O)CO)[C@@]3(C)C[C@H](O)[C@@]12Cl` (stereo partly drawn) [Compound 57, (6aS,6bR,7S,8aS,8bS,11aR,12aS,12bS)-6b-Chloro-7-hydroxy-8b-(2-hydroxyacetyl)-6a,8a-dimethyl-10-(4-(((2-oxotetrahydrofuran-3-yl)sulfinyl)methyl)phenyl)-1,2,6a,6b,7,8,8a,8b,11a,12,12a,12b-dodecahydro-4H-naphtho[2',1':4,5]indeno[1,2-d][1,3]dioxol-4-one], the EC50 came to 0.86 nM.

As for `C[C@]12C=CC(=O)C=C1[C@@H](F)C[C@H]1[C@@H]3C[C@H]4OC(c5ccc(CS(=O)(=O)C6CCOC6=O)cc5)O[C@@]4(C(=O)CO)[C@@]3(C)C[C@H](O)[C@@]12F` (stereo partly drawn) [Compound 58, (2S,6aS,6bR,7S,8aS,8bS,11aR,12aS,12bS)-2,6b-Difluoro-7-hydroxy-8b-(2-hydroxyacetyl)-6a,8a-dimethyl-10-(4-(((2-oxotetrahydrofuran-3-yl)sulfonyl)methyl)phenyl)-1,2,6a,6b,7,8,8a,8b,11a,12, 12a,12b-dodecahydro-4H-naphtho[2',1':4,5]indeno[1,2-d][1,3]dioxol-4-one], the EC50 came out at 3.67 nM.

With `C[C@]12C=CC(=O)C=C1CC[C@H]1[C@@H]3C[C@H]4OC(c5ccc(CS(=O)(=O)C6CCOC6=O)cc5)O[C@@]4(C(=O)CO)[C@@]3(C)C[C@H](O)[C@@]12Cl` (stereo partly drawn) [Compound 60, (6aS,6bR,7S,8aS,8bS,11aR,12aS,12bS)-6b-Chloro-7-hydroxy-8b-(2-hydroxyacetyl)-6a,8a-dimethyl-10-(4-(((2-oxotetrahydrofuran-3-yl)sulfonyl)methyl)phenyl)-1,2,6a,6b,7,8,8a,8b,11a,12,12a,12b-dodecahydro-4H-naphtho[2',1':4,5]indeno[1,2-d][1,3]dioxol-4-one], the concentration for a half-maximal effect (EC50) stood at 3.5 nM.
